Data as given in US20090196910A1, “Sustained-Release Preparation of Statin Drugs” (PFICKER PHARMACEUTICALS LTD., priority 2005, published 2009).

Experiments:
[1] = oral administration; cited from earlier work
[2] = system: carboxylate hydrolases in human blood; assay: Hydrolysis of 4-esters of statin drugs by ester hydrolases in vitro; format: in vitro ADME; conditions: pH 6.5-7.5
Excerpt: As shown in the in vitro experiments, the esters of statin drugs formed at the 4-hydroxyl group can be transformed into statin drugs by many dominant human ester hydrolases at a pH of 6.5-7.5.

transformation into the statin drug by ester hydrolases [2] | SMILES | bio-availability [1]
 | CC(C)c1c(C(=O)Nc2ccccc2)c(-c2ccccc2)c(-c2ccc(F)cc2)n1CC[C@@H](O)C[C@@H](O)CC(=O)O [atovastatin] | no more than 14%
readily transformed into simvastatin | CCC(C)(C)C(=O)O[C@H]1C[C@@H](C)C=C2C=C[C@H](C)C(CC[C@@H]3C[C@@H](OC(C)=O)CC(=O)O3)C21 (some centres unmarked) [4-acetate of simvastatin] | 
